From patent US20240368135A1 (VERTEX PHARMACEUTICALS INCORPORATED, priority 2021, published 2024)
Like-named read-outs stand apart in the source and are kept apart here.

Target: human NaV 1.8 (Homo sapiens, UniProt Q9Y5Y9)
Experiment: E-VIPR assay detecting and measuring NaV inhibition properties
Type: cell-based
Conditions: HEK cells expressing truncated human NaV 1.8
Method in brief: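 HEK cells expressing truncated, fully active human NaV1.8, with KIR2.1 BacMam co-transduction, were loaded with CC2-DMPE/DiSBAC6(3) voltage-sensing dyes for 20 min at room temperature. Compounds were tested in 11-point 3-fold dilutions (300 nM top final), optionally with 25% human serum, under electrical stimulation with FRET read-out.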

[1] = no human serum, read-out: IC50 in the E-VIPR Assay
[2] = in the presence of human serum (compound numbers followed by *), read-out: IC50 in the E-VIPR Assay, performed in the presence of human serum

Sequence of human NaV 1.8 (Q9Y5Y9 126-399 limits assumed): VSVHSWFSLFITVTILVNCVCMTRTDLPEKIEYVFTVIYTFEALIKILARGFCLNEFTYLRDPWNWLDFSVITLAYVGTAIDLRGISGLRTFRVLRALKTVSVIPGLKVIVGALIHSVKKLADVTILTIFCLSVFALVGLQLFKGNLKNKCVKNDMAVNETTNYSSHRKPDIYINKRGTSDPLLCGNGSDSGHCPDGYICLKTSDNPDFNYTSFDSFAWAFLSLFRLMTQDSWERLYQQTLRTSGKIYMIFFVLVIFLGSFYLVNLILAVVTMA
Sequence of human NaV 1.8 (Q9Y5Y9 660-890 limits assumed): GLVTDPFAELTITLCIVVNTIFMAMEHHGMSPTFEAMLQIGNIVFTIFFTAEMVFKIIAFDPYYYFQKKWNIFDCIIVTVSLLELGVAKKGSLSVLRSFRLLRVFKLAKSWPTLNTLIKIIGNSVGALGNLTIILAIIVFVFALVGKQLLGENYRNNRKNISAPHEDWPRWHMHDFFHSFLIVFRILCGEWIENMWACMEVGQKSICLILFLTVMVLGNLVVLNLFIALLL
Sequence of human NaV 1.8 (Q9Y5Y9 1148-1722 limits assumed): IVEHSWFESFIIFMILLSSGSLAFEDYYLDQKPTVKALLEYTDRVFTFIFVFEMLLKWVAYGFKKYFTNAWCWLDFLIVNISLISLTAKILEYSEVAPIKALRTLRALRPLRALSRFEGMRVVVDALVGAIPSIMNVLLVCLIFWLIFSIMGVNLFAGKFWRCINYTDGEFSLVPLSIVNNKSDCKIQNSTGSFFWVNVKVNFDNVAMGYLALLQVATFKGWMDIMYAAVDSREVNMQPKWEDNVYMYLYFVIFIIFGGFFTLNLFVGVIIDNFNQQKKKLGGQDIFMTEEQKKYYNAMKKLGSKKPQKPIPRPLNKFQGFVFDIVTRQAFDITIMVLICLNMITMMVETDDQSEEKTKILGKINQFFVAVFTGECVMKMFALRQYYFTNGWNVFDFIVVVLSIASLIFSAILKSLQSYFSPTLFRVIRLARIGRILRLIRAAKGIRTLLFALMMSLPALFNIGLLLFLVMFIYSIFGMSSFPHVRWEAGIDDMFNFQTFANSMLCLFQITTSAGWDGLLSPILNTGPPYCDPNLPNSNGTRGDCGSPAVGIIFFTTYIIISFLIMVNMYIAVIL

Compound	IC50 [1] [µM]	IC50 [2] [µM]
COc1c([C@H]2[C@H](C(=O)Nc3ccnc(OC4CCOCC4)c3)O[C@@](C)(C(F)(F)F)[C@H]2C)ccc(F)c1F [Compound 195, (2R,3S,4S,5R)-3-(3,4-difluoro-2-methoxyphenyl)-4,5-dimethyl-N-(2-((tetrahydro-2H-pyran-4-yl)oxy)pyridin-4-yl)-5-(trifluoromethyl)tetrahydrofuran-2-carboxamide]	0.01 to 0.1	
COc1c([C@H]2[C@H](C(=O)Nc3cn(C[C@@H](O)CO)nc3C)O[C@@](C)(C(F)(F)F)[C@H]2C)ccc(F)c1F [Compound 201, (2R,3S,4S,5R)-3-(3,4-difluoro-2-methoxyphenyl)-N-(1-((R)-2,3-dihydroxypropyl)-3-methyl-1H-pyrazol-4-yl)-4,5-dimethyl-5-(trifluoromethyl)tetrahydrofuran-2-carboxamide]	< 0.01	
COc1c(C2C(C(=O)Nc3cc[n+]([O-])c(C(O)CO)c3)OC(C)(C(F)(F)F)C2C)ccc(F)c1F (stereo not shown) [Compound 210, 3-(3,4-difluoro-2-methoxy-phenyl)-N-[2-(1,2-dihydroxyethyl)-1-oxido-pyridin-1-ium-4-yl]-4,5-dimethyl-5-(trifluoromethyl)tetrahydrofuran-2-carboxamide]	0.01 to 0.1	
COc1c([C@H]2[C@H](C(=O)Nc3ccnc(C[C@H]4COCCN4)c3)O[C@@](C)(C(F)(F)F)[C@H]2C)ccc(F)c1F [Compound 214, (2R,3S,4S,5R)-3-(3,4-difluoro-2-methoxyphenyl)-4,5-dimethyl-N-(2-(((S)-morpholin-3-yl)methyl)pyridin-4-yl)-5-(trifluoromethyl)tetrahydrofuran-2-carboxamide]	0.01 to 0.1	
COc1c(C2C(C(=O)Nc3cc(CO)ncc3C)OC(C)(C(F)(F)F)C2C)ccc(F)c1F (stereo not shown) [Compound 243, 3-(3,4-difluoro-2-methoxy-phenyl)-N-[2-(hydroxymethyl)-5-methyl-4-pyridyl]-4,5-dimethyl-5-(trifluoromethyl)tetrahydrofuran-2-carboxamide]		0.01 to 0.1
COC[C@@H](O)Cn1cc(NC(=O)[C@@H]2O[C@@](C)(C(F)(F)F)[C@@H](C)[C@H]2c2ccc(F)c(F)c2OC)c(C)n1 [Compound 245, (2R,3S,4S,5R)-3-(3,4-difluoro-2-methoxyphenyl)-N-(1-((S)-2-hydroxy-3-methoxypropyl)-3-methyl-1H-pyrazol-4-yl)-4,5-dimethyl-5-(trifluoromethyl)tetrahydrofuran-2-carboxamide]	0.01 to 0.1	
COc1c([C@H]2[C@H](C(=O)Nc3cc(CO)ncn3)O[C@@](C)(C(F)(F)F)[C@H]2C)ccc(F)c1F [Compound 246, (2R,3S,4S,5R)-3-(3,4-difluoro-2-methoxyphenyl)-N-(6-(hydroxymethyl)pyrimidin-4-yl)-4,5-dimethyl-5-(trifluoromethyl)tetrahydrofuran-2-carboxamide]	< 0.01	
COc1c([C@H]2[C@H](C(=O)Nc3ccc4nc(C(=O)N5CCOCC5)cn4c3)O[C@@](C)(C(F)(F)F)[C@H]2C)ccc(F)c1F [Compound 259, (2R,3S,4S,5R)-3-(3,4-difluoro-2-methoxyphenyl)-4,5-dimethyl-N-(2-(morpholine-4-carbonyl)imidazo[1,2-a]pyridin-6-yl)-5-(trifluoromethyl)tetrahydrofuran-2-carboxamide]	0.01 to 0.1	
COc1c([C@H]2[C@H](C(=O)Nc3ccc4nc(C(=O)NCCO)cn4c3)O[C@@](C)(C(F)(F)F)[C@H]2C)ccc(F)c1F [Compound 260, 6-((2R,3S,4S,5R)-3-(3,4-difluoro-2-methoxyphenyl)-4,5-dimethyl-5-(trifluoromethyl)tetrahydrofuran-2-carboxamido)-N-(2-hydroxyethyl)imidazo[1,2-a]pyridine-2-carboxamide]	0.01 to 0.1	
COc1c([C@H]2[C@H](C(=O)Nc3ccc4nc(C(=O)N(C)C)cn4c3)O[C@@](C)(C(F)(F)F)[C@H]2C)ccc(F)c1F [Compound 261, 6-((2R,3S,4S,5R)-3-(3,4-difluoro-2-methoxyphenyl)-4,5-dimethyl-5-(trifluoromethyl)tetrahydrofuran-2-carboxamido)-N,N-dimethylimidazo[1,2-a]pyridine-2-carboxamide]	0.01 to 0.1	

The next lines start with the values.

IC50 [1] [µM]	IC50 [2] [µM]	Compound
0.01 to 0.1		COc1c([C@H]2[C@H](C(=O)Nc3ccc(C#N)nc3)O[C@@](C)(C(F)(F)F)[C@H]2C)ccc(F)c1F [Compound 192, (2R,3S,4S,5R)-N-(6-cyanopyridin-3-yl)-3-(3,4-difluoro-2-methoxyphenyl)-4,5-dimethyl-5-(trifluoromethyl)tetrahydrofuran-2-carboxamide]
0.01 to 0.1		COc1c([C@H]2[C@H](C(=O)Nc3ccc(-c4ncc[nH]4)nc3)O[C@@](C)(C(F)(F)F)[C@H]2C)ccc(F)c1F [Compound 193, (2R,3S,4S,5R)-N-(6-(1H-imidazol-2-yl)pyridin-3-yl)-3-(3,4-difluoro-2-methoxyphenyl)-4,5-dimethyl-5-(trifluoromethyl)tetrahydrofuran-2-carboxamide]
0.01 to 0.1		COc1c([C@H]2[C@H](C(=O)Nc3ccc(CCS(C)(=O)=O)nc3)O[C@@](C)(C(F)(F)F)[C@H]2C)ccc(F)c1F [Compound 194, (2R,3S,4S,5R)-3-(3,4-difluoro-2-methoxyphenyl)-4,5-dimethyl-N-(6-(2-(methylsuflonyl)ethyl)pyridin-3-yl)-5-(trifluoromethyl)tetrahydrofuran-2-carboxamide]
< 0.01		COc1c([C@H]2[C@H](C(=O)Nc3ncco3)O[C@@](C)(C(F)(F)F)[C@H]2C)ccc(F)c1F [Compound 196, (2R,3S,4S,5R)-3-(3,4-difluoro-2-methoxyphenyl)-4,5-dimethyl-N-(oxazol-2-yl)-5-(trifluoromethyl)tetrahydrofuran-2-carboxamide]
< 0.01		COc1c(C2C(C(=O)Nc3ccnc(C(O)C(C)O)c3)OC(C)(C(F)(F)F)C2C)ccc(F)c1F (stereo not shown) [Compound 208, 3-(3,4-difluoro-2-methoxy-phenyl)-N-[2-(1,2-dihydroxypropyl)-4-pyridyl]-4,5-dimethyl-5-(trifluoromethyl)tetrahydrofuran-2-carboxamide]
< 0.01		COc1c([C@H]2[C@H](C(=O)Nc3cc(S(C)(=O)=O)nn3C)O[C@@](C)(C(F)(F)F)[C@H]2C)ccc(F)c1F [Compound 211, (2R,3S,4S,5R)-3-(3,4-difluoro-2-methoxyphenyl)-4,5-dimethyl-N-(1-methyl-3-(methylsulfonyl)-1H-pyrazol-5-yl)-5-(trifluoromethyl)tetrahydrofuran-2-carboxamide]
	0.1 to 1	COc1c([C@H]2[C@H](C(=O)Nc3ccc4nc[nH]c4c3)O[C@@](C)(C(F)(F)F)[C@H]2C)ccc(F)c1F [Compound 212, (2R,3S,4S,5R)-N-(1H-benzo[d]imidazol-6-yl)-3-(3,4-difluoro-2-methoxyphenyl)-4,5-dimethyl-5-(trifluoromethyl)tetrahydrofuran-2-carboxamide]
0.01 to 0.1		COc1c([C@H]2[C@H](C(=O)Nc3ccc(C4(N)COC4)nc3)O[C@@](C)(C(F)(F)F)[C@H]2C)ccc(F)c1F [Compound 213, (2R,3S,4S,5R)-N-(6-(3-aminooxetan-3-yl)pyridin-3-y1)-3-(3,4-difluoro-2-methoxyphenyl)-4,5-dimethyl-5-(trifluoromethyl)tetrahydrofuran-2-carboxamide]
0.01 to 0.1		COc1c([C@H]2[C@H](C(=O)Nc3ccc(CC4CCNCC4)nc3)O[C@@](C)(C(F)(F)F)[C@H]2C)ccc(F)c1F [Compound 215, (2R,3S,4S,5R)-3-(3,4-difluoro-2-methoxyphenyl)-4,5-dimethyl-N-(6-(piperidin-4-ylmethyl)pyridin-3-yl)-5-(trifluoromethyl)tetrahydrofuran-2-carboxamide]
< 0.01		COc1c([C@H]2[C@H](C(=O)Nc3cnnc(C(C)(C)O)c3)O[C@@](C)(C(F)(F)F)[C@H]2C)ccc(F)c1F [Compound 219, (2R,3S,4S,5R)-3-(3,4-difluoro-2-methoxy-phenyl)-N-[6-(1-hydroxy-1-methyl-ethyl)pyridazin-4-yl]-4,5-dimethyl-5-(trifluoromethyl)tetrahydrofuran-2-carboxamide]
0.01 to 0.1		COc1c([C@H]2[C@H](C(=O)Nc3ccc(S(N)(=O)=O)nc3)O[C@@](C)(C(F)(F)F)[C@H]2C)ccc(F)c1F [Compound 235, (2R,3S,4S,5R)-3-(3,4-difluoro-2-methoxy-phenyl)-4,5-dimethyl-N-(6-sulfamoyl-3-pyridyl)-5-(trifluoromethyl)tetrahydrofuran-2-carboxamide]
0.01 to 0.1		CNS(=O)(=O)c1ccc(NC(=O)[C@@H]2O[C@@](C)(C(F)(F)F)[C@@H](C)[C@H]2c2ccc(F)c(F)c2OC)cn1 [Compound 236, (2R,3S,4S,5R)-3-(3,4-difluoro-2-methoxy-phenyl)-4,5-dimethyl-N-[6-(methylsulfamoyl)-3-pyridyl]-5-(trifluoromethyl)tetrahydrofuran-2-carboxamide]
0.01 to 0.1		COc1c([C@H]2[C@H](C(=O)Nc3cnc(CCO)nc3)O[C@@](C)(C(F)(F)F)[C@H]2C)ccc(F)c1F [Compound 237, (2R,3S,4S,5R)-3-(3,4-difluoro-2-methoxyphenyl)-N-(2-(2-hydroxyethyl)pyrimidin-5-yl)-4,5-dimethyl-5-(trifluoromethyl)tetrahydrofuran-2-carboxamide]
0.1 to 1		COc1ncc(NC(=O)[C@@H]2O[C@@](C)(C(F)(F)F)[C@@H](C)[C@H]2c2ccc(F)c(F)c2OC)cc1CO [Compound 247, (2R,3S,4S,5R)-3-(3,4-difluoro-2-methoxyphenyl)-N-(5-(hydroxymethyl)-6-methoxypyridin-3-yl)-4,5-dimethyl-5-(trifluoromethyl)tetrahydrofuran-2-carboxamide]
0.01 to 0.1		CNC(=O)c1cn2cc(NC(=O)[C@@H]3O[C@@](C)(C(F)(F)F)[C@@H](C)[C@H]3c3ccc(F)c(F)c3OC)ccc2n1 [Compound 258, 6-((2R,3S,4S,5R)-3-(3,4-difluoro-2-methoxyphenyl)-4,5-dimethyl-5-(trifluoromethyl)tetrahydrofuran-2-carboxamido)-N-methylimidazo[1,2-a]pyridine-2-carboxamide]
